{
  "source": "ChEMBL document CHEMBL1201862",
  "about": "“PubChem BioAssay data set” (2004)",
  "key": {"Aspartyl aminopeptidase": {"biological_target": "T1, Aspartyl aminopeptidase (Plasmodium falciparum 3D7, UniProt Q8I2J3)", "T1 sequence (Q8I2J3 whole entry)": "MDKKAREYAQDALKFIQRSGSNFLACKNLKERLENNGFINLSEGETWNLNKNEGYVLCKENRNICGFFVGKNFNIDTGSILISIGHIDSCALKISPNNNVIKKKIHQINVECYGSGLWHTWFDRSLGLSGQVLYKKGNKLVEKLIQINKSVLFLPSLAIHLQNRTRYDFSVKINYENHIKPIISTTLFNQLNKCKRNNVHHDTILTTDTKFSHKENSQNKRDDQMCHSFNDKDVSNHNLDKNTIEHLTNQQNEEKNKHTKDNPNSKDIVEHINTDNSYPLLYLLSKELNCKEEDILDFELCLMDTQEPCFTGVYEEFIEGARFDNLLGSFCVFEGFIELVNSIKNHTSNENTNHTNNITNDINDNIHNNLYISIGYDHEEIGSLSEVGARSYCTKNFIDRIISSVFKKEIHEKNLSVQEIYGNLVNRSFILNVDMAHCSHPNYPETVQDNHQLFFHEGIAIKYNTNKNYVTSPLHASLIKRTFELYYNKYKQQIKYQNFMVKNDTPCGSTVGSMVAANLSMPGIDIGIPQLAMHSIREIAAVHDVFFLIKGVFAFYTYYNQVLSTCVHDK"}, "Procathepsin L": {"biological_target": "Procathepsin L (Homo sapiens, UniProt P07711)", "sequence (P07711 whole entry)": "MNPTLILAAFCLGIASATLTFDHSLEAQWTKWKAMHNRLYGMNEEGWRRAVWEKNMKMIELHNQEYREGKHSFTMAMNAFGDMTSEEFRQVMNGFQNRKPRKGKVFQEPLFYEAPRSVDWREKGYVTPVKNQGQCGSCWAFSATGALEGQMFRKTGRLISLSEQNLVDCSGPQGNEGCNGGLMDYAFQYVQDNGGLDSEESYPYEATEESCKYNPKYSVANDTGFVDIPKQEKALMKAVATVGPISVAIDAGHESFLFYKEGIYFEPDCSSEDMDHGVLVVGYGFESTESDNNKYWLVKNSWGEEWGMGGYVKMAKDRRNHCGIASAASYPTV"}, "[1]": {"assay": "inhibitors of Bluetongue virus cytopathic effect, confirmation, arbovirus, BSR cells (AID 1250);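 also: protection from viral cytopathic effect measured as cell viability by ATP luminescence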", "format": "functional"}, "Beta-galactosidase": {"biological_target": "Beta-galactosidase (Escherichia coli, UniProt Q8VNN2)", "sequence (Q8VNN2 whole entry)": "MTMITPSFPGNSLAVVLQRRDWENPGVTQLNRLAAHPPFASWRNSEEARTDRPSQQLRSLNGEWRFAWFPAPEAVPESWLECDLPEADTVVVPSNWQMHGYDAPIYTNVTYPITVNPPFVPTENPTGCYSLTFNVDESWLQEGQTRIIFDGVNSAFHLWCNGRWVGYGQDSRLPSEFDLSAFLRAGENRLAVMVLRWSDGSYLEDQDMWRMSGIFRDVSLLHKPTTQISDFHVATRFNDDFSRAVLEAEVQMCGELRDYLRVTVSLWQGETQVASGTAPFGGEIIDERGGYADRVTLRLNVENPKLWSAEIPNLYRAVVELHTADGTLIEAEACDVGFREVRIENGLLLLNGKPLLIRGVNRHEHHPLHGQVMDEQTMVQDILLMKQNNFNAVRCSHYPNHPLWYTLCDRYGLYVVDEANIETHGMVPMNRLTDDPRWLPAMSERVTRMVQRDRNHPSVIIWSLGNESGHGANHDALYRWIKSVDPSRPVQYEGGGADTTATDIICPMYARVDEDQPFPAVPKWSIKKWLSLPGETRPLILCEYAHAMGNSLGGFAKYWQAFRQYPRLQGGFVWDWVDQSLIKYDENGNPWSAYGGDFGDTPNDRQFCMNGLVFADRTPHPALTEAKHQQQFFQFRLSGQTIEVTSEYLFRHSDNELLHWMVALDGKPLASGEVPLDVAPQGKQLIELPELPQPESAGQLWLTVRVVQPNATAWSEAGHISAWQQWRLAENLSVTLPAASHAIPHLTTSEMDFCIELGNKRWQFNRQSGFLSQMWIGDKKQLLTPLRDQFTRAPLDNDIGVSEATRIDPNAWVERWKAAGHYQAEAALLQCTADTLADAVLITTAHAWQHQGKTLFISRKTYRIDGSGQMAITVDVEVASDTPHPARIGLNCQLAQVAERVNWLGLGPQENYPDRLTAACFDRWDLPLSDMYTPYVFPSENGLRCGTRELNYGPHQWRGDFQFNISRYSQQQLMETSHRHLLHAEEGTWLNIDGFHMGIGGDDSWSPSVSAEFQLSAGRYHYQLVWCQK", "assay": "beta-galactosidase enzyme inhibitors and activators, dose response, artefact control for CCR6 antagonist project, biochemical, E. coli enzyme, set 3 (AID 504712)", "format": "functional"}, "[2]": {"biological_target": "Glyceraldehyde-3-phosphate dehydrogenase (Homo sapiens, UniProt P04406)", "sequence (P04406 whole entry)": "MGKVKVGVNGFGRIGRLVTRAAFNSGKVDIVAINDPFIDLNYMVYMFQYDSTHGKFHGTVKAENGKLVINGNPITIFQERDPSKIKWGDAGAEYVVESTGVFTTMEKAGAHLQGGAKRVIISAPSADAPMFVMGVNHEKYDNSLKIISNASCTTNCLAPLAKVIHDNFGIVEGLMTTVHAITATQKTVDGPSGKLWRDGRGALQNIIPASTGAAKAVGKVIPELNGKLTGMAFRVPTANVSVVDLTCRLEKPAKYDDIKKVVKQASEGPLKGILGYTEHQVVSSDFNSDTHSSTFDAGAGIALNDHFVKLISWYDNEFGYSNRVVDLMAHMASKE"}, "[3]": {"biological_target": "Alkaline phosphatase, placental type (Homo sapiens, UniProt P05187)", "sequence (P05187 whole entry)": "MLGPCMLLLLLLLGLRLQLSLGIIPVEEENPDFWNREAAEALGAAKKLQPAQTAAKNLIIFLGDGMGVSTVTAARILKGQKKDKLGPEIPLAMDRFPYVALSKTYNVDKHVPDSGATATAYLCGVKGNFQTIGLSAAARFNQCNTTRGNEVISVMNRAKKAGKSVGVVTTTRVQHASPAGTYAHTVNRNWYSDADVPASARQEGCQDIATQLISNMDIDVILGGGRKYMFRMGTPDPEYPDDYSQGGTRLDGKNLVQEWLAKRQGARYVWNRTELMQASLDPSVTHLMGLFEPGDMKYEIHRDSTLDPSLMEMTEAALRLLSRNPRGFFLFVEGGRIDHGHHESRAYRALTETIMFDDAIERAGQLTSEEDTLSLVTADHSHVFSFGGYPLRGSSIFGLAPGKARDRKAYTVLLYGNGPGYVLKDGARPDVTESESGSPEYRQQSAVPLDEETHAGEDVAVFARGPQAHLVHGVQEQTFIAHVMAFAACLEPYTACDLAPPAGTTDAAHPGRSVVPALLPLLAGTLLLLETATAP", "assay": "PLAP enzyme inhibitors, confirmation, biochemical, luminescence (AID 1512)", "format": "functional"}, "[4]": {"biological_target": "T2, Alkaline phosphatase, tissue-nonspecific isozyme (Homo sapiens, UniProt P05186)", "T2 sequence (P05186 whole entry)": "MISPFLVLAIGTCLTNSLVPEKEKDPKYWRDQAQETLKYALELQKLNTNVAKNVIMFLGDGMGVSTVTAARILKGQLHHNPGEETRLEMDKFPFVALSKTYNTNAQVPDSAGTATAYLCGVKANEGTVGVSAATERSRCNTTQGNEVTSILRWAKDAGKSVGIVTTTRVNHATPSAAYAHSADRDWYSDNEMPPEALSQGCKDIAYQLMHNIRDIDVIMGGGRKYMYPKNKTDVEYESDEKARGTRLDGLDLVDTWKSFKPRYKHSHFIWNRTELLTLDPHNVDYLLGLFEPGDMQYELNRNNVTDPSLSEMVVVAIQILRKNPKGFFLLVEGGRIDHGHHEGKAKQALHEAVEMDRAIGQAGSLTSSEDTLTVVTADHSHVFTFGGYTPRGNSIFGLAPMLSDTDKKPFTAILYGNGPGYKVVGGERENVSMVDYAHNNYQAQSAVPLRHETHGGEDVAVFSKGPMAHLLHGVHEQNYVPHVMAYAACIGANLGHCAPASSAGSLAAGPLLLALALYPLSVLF", "assay": "human TNAP enzyme inhibitors, SAR follow-up, biochemical, luminescent, dose response (AID 1056)"}, "[5]": {"biological_target": "Heat shock protein HSP 90-alpha (Homo sapiens, UniProt P07900)", "format": "functional, organism-based"}, "Caspase-3": {"biological_target": "T3, Caspase-3 (Homo sapiens, UniProt P42574)", "T3 sequence (P42574 whole entry)": "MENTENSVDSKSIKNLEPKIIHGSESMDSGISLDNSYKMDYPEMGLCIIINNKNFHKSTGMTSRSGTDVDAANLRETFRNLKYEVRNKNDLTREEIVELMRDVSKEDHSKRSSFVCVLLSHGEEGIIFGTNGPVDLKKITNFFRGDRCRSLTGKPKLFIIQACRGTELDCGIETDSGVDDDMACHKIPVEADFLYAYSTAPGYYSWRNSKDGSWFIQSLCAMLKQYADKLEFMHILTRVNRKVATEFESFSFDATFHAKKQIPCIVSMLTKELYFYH", "assay": "procaspase-3 activation potency of dual hits, dose response, counter-screen for dual procaspase-3/7 activator project, biochemical, absorbance, PC-3 D3A mutant (AID 504328)"}, "Caspase-7": {"biological_target": "T4, Caspase-7 (Homo sapiens, UniProt P55210)", "T4 sequence (P55210 whole entry)": "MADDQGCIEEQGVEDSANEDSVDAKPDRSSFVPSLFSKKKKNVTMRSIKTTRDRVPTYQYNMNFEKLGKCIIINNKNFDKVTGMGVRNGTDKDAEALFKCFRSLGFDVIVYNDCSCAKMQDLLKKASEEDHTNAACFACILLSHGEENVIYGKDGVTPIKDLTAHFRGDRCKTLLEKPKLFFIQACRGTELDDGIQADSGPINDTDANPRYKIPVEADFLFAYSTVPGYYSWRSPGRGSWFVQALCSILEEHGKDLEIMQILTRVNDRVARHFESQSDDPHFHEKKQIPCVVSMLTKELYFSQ", "assay": "procaspase-7 activators, dose response, dual procaspase-3/-7 activator project, biochemical, absorbance, human (AID 504330)"}},
  "note": "The source made the active and inactive calls.",
  "data": [
    {"smiles": "Cc1cc(OCC(=O)Nn2cnnc2)ccc1Br", "values": [
      {"measurement": "IC50", "setting": "Aspartyl aminopeptidase", "value": "2.55 µM (active)"},
      {"measurement": "IC50", "setting": "Procathepsin L", "value": "> 59.6 µM (not active)"}
    ]},
    {"smiles": "Cc1nn(-c2cc(C(F)(F)F)ccc2Cl)c2nc(C(F)(F)F)nc(O)c12", "values": [
      {"measurement": "IC50", "setting": "[1]", "value": "22.5 µM (active)"}
    ]},
    {"smiles": "CC(C)Oc1cccc(C(=O)NC(=S)Nc2cccc(C(F)(F)F)c2)c1", "values": [
      {"measurement": "IC50", "setting": "Beta-galactosidase", "value": "> 66.6 µM (inactive)"}
    ]},
    {"smiles": "O=C(NCc1ccccc1Cl)C1CCN(S(=O)(=O)c2cccc3nonc23)CC1", "values": [
      {"measurement": "IC50", "setting": "cells", "value": "27.2 µM (active)"}
    ]},
    {"smiles": "CN(Cc1nc(O)c2ccccc2n1)C(=O)c1cc(C2CC2)nn1-c1ccccc1", "values": [
      {"measurement": "IC50", "setting": "cells", "value": "21.6 µM (active)"}
    ]},
    {"smiles": "O=C(c1cc(-c2ccc(Cl)cc2Cl)n[nH]1)N1CCCC1", "values": [
      {"measurement": "IC50", "setting": "[2]", "value": "> 100 µM (not active)"},
      {"measurement": "IC50", "setting": "[3]", "value": "> 100 µM (inactive)"},
      {"measurement": "IC50", "setting": "[4]", "value": "6.57 µM (active)"}
    ]},
    {"smiles": "COc1cccc(-c2cc(C(=O)Nn3cnnc3)c3ccccc3n2)c1", "values": [
      {"measurement": "IC50", "setting": "Aspartyl aminopeptidase", "value": "1.87 µM (active)"},
      {"measurement": "IC50", "setting": "Procathepsin L", "value": "> 59.6 µM (not active)"}
    ]},
    {"smiles": "O=C(Oc1ccc(Cl)c2cccnc12)c1cccnc1", "values": [
      {"measurement": "IC50", "setting": "Beta-galactosidase", "value": "> 66.6 µM (inactive)"},
      {"measurement": "AC50", "setting": "[5]", "value": "8.18 µM (active)"}
    ]},
    {"smiles": "COC(=O)C1=NN(c2ccc(Cl)cc2)C2C(=O)N(c3ccccc3OC)C(=O)C12", "note": "(stereo unspecified)", "values": [
      {"measurement": "EC50", "setting": "Caspase-3", "value": "> 85.3 µM (inactive)"},
      {"measurement": "EC50", "setting": "Caspase-7", "value": "> 85.3 µM (inactive)"}
    ]},
    {"smiles": "CCOC(=O)c1c(-c2ccc(C)o2)csc1NC(=S)NC(=O)c1ccccc1Br", "values": [
      {"measurement": "IC50", "setting": "[1]", "value": "37.3 µM (active)"}
    ]}
  ]
}
